A word on the IC50: it is the concentration that gives 50% inhibition. Broadly, the viability is a read-out of living cells in per cent, often relative to untreated cells.

Each structure is given as a SMILES string. Like-named read-outs stand apart in the source and are kept apart here.

Data set [1] has as its target T1, AChE from electric eel (Electrophorus electricus) (Electrophorus electricus, UniProt O42275).
T1 construct: purchased Sigma, St. Louis, MO, USA
The data set can be described thus: In vitro AChE inhibition, modified Ellman's method. Format: biochemical. On the procedure:
(§1) The ability of all the prepared compounds to inhibit AChE from electric eel (Electrophorus electricus) and BChE from equine serum (both purchased from Sigma, St. Louis, MO, USA) was determined in vitro using a modified Ellman’s method, as described in detail elsewhere. This is a simple, rapid, and direct method to determine the SH and -S-S- group content in proteins. The enzyme activity is measured indirectly by quantifying the concentration of the 5-thio-2-nitrobenzoic acid ion formed in the reaction between the thiol reagent 5,5’-dithiobis-2nitrobenzoic acid (DTNB) and thiocholine, which is a product of acetylthiocholine hydrolysis catalyzed by cholinesterases. The effectiveness of the tested inhibitors is expressed as the IC50 values.
(§2) The enzyme activity in the final reaction mixture (2 mL) was 0.2 U/mL, the concentration of the substrate (acetylthiocholine or butyrythiocholine) was 40 µM, and the concentration of DTNB was 0.1 mM for all reactions. All reactions were carried out at 25 °C in the presence of phosphate-buffered saline (0.1 M, pH 7.4) in a glass cuvette with a 1 cm optical path. All the studied inhibitors were dissolved in DMSO (concentration 0.01 M) and then diluted in demineralized water as necessary. […] All measurements were carried out in triplicate, and the average values of the reaction rate (v0—reaction in the absence of the inhibitor, vi—reaction in the presence of the inhibitor) were used for construction of the dependence v0/vi vs. concentration of the inhibitor.
For orientation: DTNB colorimetry detects thiols as they appear.

In another data set the target is T2, BChE from equine serum (Equus caballus, UniProt P81908).
T2 construct: BChE from equine serum; purchased Sigma, St. Louis, MO, USA; host or cells: equine serum
The data set can be described thus: In vitro BChE inhibition, modified Ellman's method. The class given is biochemical. The settings on record: for SI (index selectivity) = IC50 (AChE)/IC50 (BChE): ratio IC50 AChE/IC50 BChE. Here is the method: as §1, §2

Data set [2] is described as follows: Determination of lipophilicity by RP-HPLC (capacity factor k). The class given is physicochemical. The following applies: C18, isocratic MeOH 72%/H2O 28%, 40 °C. On the procedure: The lipophilicity of all the target compounds was investigated by means of RP-HPLC determination of capacity factors k with a subsequent calculation of log k. The retention times of individual compounds were determined under isocratic conditions with methanol as an organic modifier in the mobile phase using end-capped non-polar C18 stationary RP columns.
The HPLC separation system Agilent 1200 series equipped with a DAD SL (Agilent Technologies) was used. A chromatographic column Symmetry® C18 5 μm, 4.6 × 250 mm, Part No. W21751W016 (Waters Corp., Milford, MA, USA) was applied. The HPLC separation process was monitored by the ChemStation for LC 3D chromatography software (Agilent Technologies). Isocratic elution by a mixture of MeOH p.a. (72%) and H2O-HPLC Mili-Q grade (28%) as a mobile phase was used for the determination of the capacity factor k. The total flow of the column was 1.0 mL/min, injection 20 μL, column temperature 40 °C, and sample temperature 10 °C. The detection wavelength of 210 nm was chosen. A KI methanolic solution was used for the determination of the dead times (tD). Retention times (tR) were measured in minutes. The capacity factors k were calculated according to the formula k = (tR − tD)/tD, where tR is the retention time of the solute and tD is the dead time obtained using an unretained analyte. Each experiment was repeated three times.

Data set [3] is described as follows: In vitro cell viability assay (CCK-8). Format: cell-based. The following applies: human, THP-1 cells (human monocytic leukemia), read-out: relative cell viability. Here is the method: The human monocytic leukemia THP-1 cell line was selected for this purpose, as we described previously. Nor 2 neither 28 show negative effect on relative cell viability up to the concentration of 30 µM. The relative cell viability was around 100% at this concentration. It makes compounds 2 and 28 interesting for further pharmacological evaluation and allows them to become lead compounds.
Human monocytic leukemia THP-1 cells were used for in vitro antiproliferative assays. Cells were obtained from the European Collection of Cell Cultures (ECACC, Salisbury, UK) and routinely cultured in Roswell Park Memorial Institute RPMI 1640 medium supplemented with 10% fetal bovine serum (FBS), 2% L-glutamine, 1% penicillin and streptomycin (all from Sigma-Aldrich) at 37 °C with 5% CO2. Cells were passaged twice a week. The effect of the compounds on cell viability was determined using a Cell Counting Kit-8 (CCK-8, 2-(2-methoxy-4-nitrophenyl)-3-(4-nitrophenyl)-5-(2,4-disulfophenyl)-2H-tetrazolium, monosodium salt, Sigma) according to the manufacturer’s instructions. The compounds were dissolved in DMSO and added to the cell suspension in the RPMI 1640 medium without FBS (5 × 10^5 cells/mL). […] After this incubation period, the relative cell viability (the ratio between cells treated with compounds and cells treated only with DMSO) was determined by CCK-8 kit.

T2 sequence (P81908 whole entry): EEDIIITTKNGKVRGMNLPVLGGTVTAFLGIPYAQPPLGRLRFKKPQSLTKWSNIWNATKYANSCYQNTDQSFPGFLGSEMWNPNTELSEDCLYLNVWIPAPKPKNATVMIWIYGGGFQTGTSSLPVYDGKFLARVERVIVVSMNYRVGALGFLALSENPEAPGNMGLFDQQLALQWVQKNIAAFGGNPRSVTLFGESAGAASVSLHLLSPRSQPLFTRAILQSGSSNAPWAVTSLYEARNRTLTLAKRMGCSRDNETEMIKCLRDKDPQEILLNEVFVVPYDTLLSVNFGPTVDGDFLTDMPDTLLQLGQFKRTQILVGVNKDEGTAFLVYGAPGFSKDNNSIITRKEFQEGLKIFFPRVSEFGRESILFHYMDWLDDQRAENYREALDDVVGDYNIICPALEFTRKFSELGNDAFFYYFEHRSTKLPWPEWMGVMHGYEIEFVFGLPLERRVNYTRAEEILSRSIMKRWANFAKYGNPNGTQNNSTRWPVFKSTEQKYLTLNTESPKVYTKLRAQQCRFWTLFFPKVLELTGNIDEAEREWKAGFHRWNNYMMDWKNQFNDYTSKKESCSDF
T1 sequence (O42275 24-633): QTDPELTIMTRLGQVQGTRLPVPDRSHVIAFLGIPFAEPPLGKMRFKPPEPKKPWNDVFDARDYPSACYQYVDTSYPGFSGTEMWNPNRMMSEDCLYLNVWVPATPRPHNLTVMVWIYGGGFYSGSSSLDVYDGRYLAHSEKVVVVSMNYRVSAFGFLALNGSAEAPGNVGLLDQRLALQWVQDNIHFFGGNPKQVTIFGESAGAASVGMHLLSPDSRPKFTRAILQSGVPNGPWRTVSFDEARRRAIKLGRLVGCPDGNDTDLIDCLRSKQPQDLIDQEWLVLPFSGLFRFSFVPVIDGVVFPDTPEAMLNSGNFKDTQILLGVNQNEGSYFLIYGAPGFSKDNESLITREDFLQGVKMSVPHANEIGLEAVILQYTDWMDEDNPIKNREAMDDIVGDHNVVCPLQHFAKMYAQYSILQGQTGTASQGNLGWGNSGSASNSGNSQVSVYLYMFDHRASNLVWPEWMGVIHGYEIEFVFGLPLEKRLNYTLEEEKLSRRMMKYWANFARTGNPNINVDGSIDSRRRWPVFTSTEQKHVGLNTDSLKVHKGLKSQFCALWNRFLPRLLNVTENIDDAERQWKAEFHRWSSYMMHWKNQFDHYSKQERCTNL

Regarding `COc1ccccc1NC(=O)c1ccc(NC(=O)OCc2ccccc2)cc1O` [Compound 2, Benzyl{3-hydroxy-4-[(2-methoxyphenyl)carbamoyl]phenyl}carbamate], in data set [1], half-maximal inhibition (IC50) was put at 50.1 ± 1.57 µM. Moreover, on BChE from equine serum, it took 22.2 ± 0.53 µM to reach half-maximal inhibition (IC50) and the “SI (index selectivity) = IC50 (AChE)/IC50 (BChE)” value (“SI (index selectivity) = IC50” for short) turned out to be 2.26. In addition, the log k in data set [2] came to 0.3368. For the same molecule, the viability at 24 h, 30 µM in data set [3] was about 100%.

`O=C(Nc1ccc(C(=O)Nc2cc(F)cc(F)c2)c(O)c1)OCc1ccccc1` [Compound 20, Benzyl{4-[(3,5-difluorophenyl)carbamoyl]-3-hydroxyphenyl}carbamate] returned a 50% inhibitory concentration (IC50) in data set [1] of 67.4 ± 5.24 µM. Further, at BChE from equine serum, the IC50 worked out at 208 ± 5.3 µM and the “SI (index selectivity) = IC50” value was 0.32. In addition, the log k in data set [2] is recorded as 0.4072.

As to `O=C(Nc1ccc(C(=O)Nc2cccc(Cl)c2Cl)c(O)c1)OCc1ccccc1` [Compound 21, Benzyl{4-[(2,3-dichlorophenyl)carbamoyl]-3-hydroxyphenyl}carbamate], the IC50 in data set [1] worked out at 88.8 ± 1.42 µM; against BChE from equine serum, 248 ± 14.9 µM. The “SI (index selectivity) = IC50” value on BChE from equine serum is listed as 0.36. Moreover, the log k in data set [2] was determined as 0.5497.

Take `O=C(Nc1ccc(C(=O)Nc2cc(Cl)ccc2Cl)c(O)c1)OCc1ccccc1` [Compound 22, Benzyl{4-[(2,5-dichlorophenyl)carbamoyl]-3-hydroxyphenyl}carbamate]: the concentration for half-maximal inhibition (IC50) in data set [1] was 99.14 ± 0.2 µM; against BChE from equine serum it was 141 ± 7.12 µM. Moreover, the “SI (index selectivity) = IC50” value at BChE from equine serum worked out at 0.70. Further, the log k in data set [2] turned out to be 0.6138.

In data set [1], `O=C(Nc1ccc(C(=O)Nc2c(Cl)cccc2Cl)c(O)c1)OCc1ccccc1` [Compound 23, Benzyl{4-[(2,6-dichlorophenyl)carbamoyl]-3-hydroxyphenyl}carbamate] yielded a half-maximal inhibitory concentration (IC50) of 76.74 ± 0.74 µM. Besides, on BChE from equine serum, the IC50 is 117.6 ± 1.11 µM and the “SI (index selectivity) = IC50” value turned out to be 0.65. In data set [2], this molecule yielded a log k of 0.8125.

`O=C(Nc1ccc(C(=O)Nc2ccc(Cl)c(Cl)c2)c(O)c1)OCc1ccccc1` [Compound 24, Benzyl{4-[(3,4-dichlorophenyl)carbamoyl]-3-hydroxyphenyl}carbamate] showed an IC50 in data set [1] of 58 ± 5.83 µM. Besides, at BChE from equine serum, the IC50 is 185 ± 6.13 µM and the “SI (index selectivity) = IC50” value is listed as 0.31. This molecule also gave a log k in data set [2] of 0.6664.

With `O=C(Nc1ccc(C(=O)Nc2cc(Cl)cc(Cl)c2)c(O)c1)OCc1ccccc1` [Compound 25, Benzyl{4-[(3,5-dichlorophenyl)carbamoyl]-3-hydroxyphenyl}carbamate], in data set [1], the IC50 came to 50.62 ± 0.38 µM. In addition, on BChE from equine serum, inhibition was half-maximal at 143 ± 3.69 µM (IC50) and the “SI (index selectivity) = IC50” value worked out at 0.35. In data set [2], this molecule had a log k of 0.9084.

As to `O=C(Nc1ccc(C(=O)Nc2ccc(Br)cc2Br)c(O)c1)OCc1ccccc1` [Compound 26, Benzyl{4-[(2,4-dibromophenyl)carbamoyl]-3-hydroxyphenyl}carbamate], half-maximal inhibition in data set [1] (IC50) required 94.9 ± 0.97 µM. In addition, at BChE from equine serum, inhibition was half-maximal at 262 ± 5.1 µM (IC50) and the “SI (index selectivity) = IC50” value worked out at 0.36. In addition, in data set [2], the log k was found to be 0.7366.

Take `O=C(Nc1ccc(C(=O)Nc2cc(C(F)(F)F)cc(C(F)(F)F)c2)c(O)c1)OCc1ccccc1` [Compound 27, Benzyl{4-[(3,5-di(trifluoromethyl))carbamoyl]-3-hydroxyphenyl}carbamate]: the IC50 in data set [1] (mean ± SD, n = 3, electric eel AChE, 25 °C, pH 7.4, read-out: IC50 AChE) came out at 59.4 ± 3.38 µM; at BChE from equine serum (mean ± SD, n = 3, equine serum BChE, 25 °C, pH 7.4, read-out: IC50 BChE) it was 146 ± 2.65 µM. For the same molecule, at BChE from equine serum, the “SI (index selectivity) = IC50” value stood at 0.41. In data set [2], this molecule came in with a log k of 0.9667.

For the molecule `O=C(Nc1ccc(C(=O)Nc2c(F)cc(F)cc2F)c(O)c1)OCc1ccccc1` [Compound 28, Benzyl{3-hydroxy-4-[(2,4,6-trifluorophenyl)carbamoyl]phenyl}carbamate], the concentration for half-maximal inhibition (IC50) in data set [1] came to 49.87 ± 0.09 µM. Moreover, on BChE from equine serum, the IC50 worked out at 31 ± 2.11 µM and the “SI (index selectivity) = IC50” value is recorded as 1.61. Besides, in data set [2], the log k is reported as -0.0131. Also, in data set [3], the viability at 24 h, 30 µM was about 100%.

`O=C(Nc1ccc(C(=O)Nc2cc(F)c(F)c(F)c2)c(O)c1)OCc1ccccc1` [Compound 29, Benzyl{3-hydroxy-4-[(3,4,5-trifluorophenyl)carbamoyl]phenyl}carbamate] gave an IC50 in data set [1] of 62.3 ± 0.75 µM. Moreover, at BChE from equine serum, it took 183.7 ± 0.75 µM to reach half-maximal inhibition (IC50) and the “SI (index selectivity) = IC50” value is given as 0.34. This molecule displayed a log k in data set [2] of 0.5169.

In data set [1], `O=C(Nc1ccc(C(=O)Nc2c(Cl)cc(Cl)cc2Cl)c(O)c1)OCc1ccccc1` [Compound 31, Benzyl{3-hydroxy-4-[(2,4,6-trichlorophenyl)carbamoyl]phenyl}carbamate] returned an IC50 of 93.1 ± 1.8 µM. Besides, on BChE from equine serum, the IC50 amounted to 57.1 ± 1.72 µM and the “SI (index selectivity) = IC50” value was determined as 1.63. The log k in data set [2] worked out at 0.3679.

In the case of `O=C(Nc1ccc(C(=O)Nc2c(Br)cc(Br)cc2Br)c(O)c1)OCc1ccccc1` [Compound 32, Benzyl{3-hydroxy-4-[(2,4,6-tribromophenyl)carbamoyl]phenyl}carbamate], the concentration for half-maximal inhibition (IC50) in data set [1] came out at 65.9 ± 2.81 µM; against BChE from equine serum it was 56 ± 0.58 µM. Besides, the “SI (index selectivity) = IC50” value on BChE from equine serum was found to be 1.18. Also, the log k in data set [2] worked out at 0.4427.

Values taken from paper PMC8037530, “Synthesis and Hybrid SAR Property Modeling of Novel Cholinesterase Inhibitors” (International Journal of Molecular Sciences, 2021).
